# Source: patent publication US8802661B2, “C-28 amides of modified C-3 betulinic acid derivatives as HIV maturation inhibitors” (priority 2010, dated 2014)
# Where a name gives a salt, the structure may show the parent alone.
# System: recombinant NL4-3 virus (Renilla luciferase in nef, Gag P373S)
# Test: HIV Cell Culture Assay (luciferase reporter virus in MT-2 cells)
# Type: cell-based
# Settings: NL43
# Procedure, shortened: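 Luciferase signal is the read-out: after 4-5 days of infection in the presence of serially diluted compound, MT-2 cells are lysed with a premix of lysis buffer, luciferase reagent and Stop & Glo substrate, and luminescence is read immediately.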
row,SMILES,EC50
1,"C=C(C)[C@@H]1CC[C@]2(C(=O)N3CCCCC3)CC[C@]3(C)[C@H](CC[C@@H]4[C@@]5(C)CC=C(c6ccc(C(=O)O)cc6)C(C)(C)[C@@H]5CC[C@]43C)[C@@H]12 [Example 19, 4-((1R,3aS,5aR,5bR,7aR,11aS,11bR,13aR,13bR)-5a,5b,8,8,11a-pentamethyl-3a-(piperidine-1-carbonyl)-1-(prop-1-en-2-yl)-2,3,3a,4,5,5a,5b,6,7,7a,8,11,11a,11b,12,13,13a,13b-octadecahydro-1H-cyclopenta[a]chrysen-9-yl)benzoic acid]",370 nM

# Same assay, conditions: NL43, read-out: EC50 Group
row,SMILES,EC50
1,"C=C(C)[C@@H]1CC[C@]2(C(=O)NCCCN3CCOCC3)CC[C@]3(C)[C@H](CC[C@@H]4[C@@]5(C)CC=C(c6ccc(C(=O)O)cc6)C(C)(C)[C@@H]5CC[C@]43C)[C@@H]12 [Example 32, 4-((1R,3aS,5aR,5bR,7aR,11aS,11bR,13aR,13bR)-5a,5b,8,8,11a-pentamethyl-3a-(3-morpholinopropylcarbamoyl)-1-(prop-1-en-2-yl)-2,3,3a,4,5,5a,5b,6,7,7a,8,11,11a,11b,12,13,13a,13b-octadecahydro-1H-cyclopenta[a]chrysen-9-yl)benzoic acid]",< 100 nM
2,"C=C(C)[C@@H]1CC[C@]2(C(=O)N(C)CCN(C)C)CC[C@]3(C)[C@H](CC[C@@H]4[C@@]5(C)CC=C(c6ccc(C(=O)O)cc6)C(C)(C)[C@@H]5CC[C@]43C)[C@@H]12 [Example 31, 4-((1R,3aS,5aR,5bR,7aR,11aS,11bR,13aR,13bR)-3a-((2-(dimethylamino)ethyl)(methyl)carbamoyl)-5a,5b,8,8,11a-pentamethyl-1-(prop-1-en-2-yl)-2,3,3a,4,5,5a,5b,6,7,7a,8,11,11a,11b,12,13,13a,13b-octadecahydro-1H-cyclopenta[a]chrysen-9-yl)benzoic acid]",< 100 nM
3,"C=C(C)[C@@H]1CC[C@]2(C(=O)NCCN3CCCCC3)CC[C@]3(C)[C@H](CC[C@@H]4[C@@]5(C)CC=C(c6ccc(C(=O)O)cc6)C(C)(C)[C@@H]5CC[C@]43C)[C@@H]12 [Example 33, 4-((1R,3aS,5aR,5bR,7aR,11aS,11bR,13aR,13bR)-5a,5b,8,8,11a-pentamethyl-3a-(2-(piperidin-1-yl)ethylcarbamoyl)-1-(prop-1-en-2-yl)-2,3,3a,4,5,5a,5b,6,7,7a,8,11,11a,11b,12,13,13a,13b-octadecahydro-1H-cyclopenta[a]chrysen-9-yl)benzoic acid]",< 100 nM
4,"C=C(C)[C@@H]1CC[C@]2(C(=O)N(C)CCO)CC[C@]3(C)[C@H](CC[C@@H]4[C@@]5(C)CC=C(c6ccc(C(=O)O)cc6)C(C)(C)[C@@H]5CC[C@]43C)[C@@H]12 [Example 23, 4-((1R,3aS,5aR,5bR,7aR,11aS,11bR,13aR,13bR)-3a-((2-hydroxyethyl)(methyl)carbamoyl)-5a,5b,8,8,11a-pentamethyl-1-(prop-1-en-2-yl)-2,3,3a,4,5,5a,5b,6,7,7a,8,11,11a,11b,12,13,13a,13b-octadecahydro-1H-cyclopenta[a]chrysen-9-yl)benzoic acid]",< 100 nM
5,"C=C(C)[C@@H]1CC[C@]2(C(=O)NCCNC(C)=O)CC[C@]3(C)[C@H](CC[C@@H]4[C@@]5(C)CC=C(c6ccc(C(=O)O)cc6)C(C)(C)[C@@H]5CC[C@]43C)[C@@H]12 [Example 30, 4-((1R,3aS,5aR,5bR,7aR,11aS,11bR,13aR,13bR)-3a-(2-acetamidoethylcarbamoyl)-5a,5b,8,8,11a-pentamethyl-1-(prop-1-en-2-yl)-2,3,3a,4,5,5a,5b,6,7,7a,8,11,11a,11b,12,13,13a,13b-octadecahydro-1H-cyclopenta[a]chrysen-9-yl)benzoic acid]",< 100 nM
6,"CC(C)[C@@H]1CC[C@]2(C(=O)NCCC(=O)O)CC[C@]3(C)[C@H](CC[C@@H]4[C@@]5(C)CC[C@H](c6ccc(C(=O)O)cc6)C(C)(C)[C@@H]5CC[C@]43C)[C@@H]12 [Example 124, 4-((1S,3aS,5aR,5bR,7aS,9S,11aS,11bR,13aR,13bR)-3a-(2-carboxyethylcarbamoyl)-1-isopropyl-5a,5b,8,8,11a-pentamethylicosahydro-1H-cyclopenta[a]chrysen-9-yl)benzoic acid]",< 100 nM
7,"C=C(C)[C@@H]1CC[C@]2(C(=O)NCCCN)CC[C@]3(C)[C@H](CC[C@@H]4[C@@]5(C)CC=C(c6ccc(C(=O)O)cc6)C(C)(C)[C@@H]5CC[C@]43C)[C@@H]12 [Example 98, 4-((1R,3aS,5aR,5bR,7aR,11aS,11bR,13aR,13bR)-3a-(3-aminopropylcarbamoyl)-5a,5b,8,8,11a-pentamethyl-1-(prop-1-en-2-yl)-2,3,3a,4,5,5a,5b,6,7,7a,8,11,11a,11b,12,13,13a,13b-octadecahydro-1H-cyclopenta[a]chrysen-9-yl)benzoic acid]",< 100 nM
8,"C=C(C)[C@@H]1CC[C@]2(C(=O)NCCN(CC)CCC(=O)O)CC[C@]3(C)[C@H](CC[C@@H]4[C@@]5(C)CC=C(c6ccc(C(=O)O)cc6)C(C)(C)[C@@H]5CC[C@]43C)[C@@H]12 [Example 89, 4-((1R,3aS,5aR,5bR,7aR,11aS,11bR,13aR,13bR)-3a-(2-((2-carboxyethyl)(ethyl)amino)ethylcarbamoyl)-5a,5b,8,8,11a-pentamethyl-1-(prop-1-en-2-yl)-2,3,3a,4,5,5a,5b,6,7,7a,8,11,11a,11b,12,13,13a,13b-octadecahydro-1H-cyclopenta[a]chrysen-9-yl)benzoic acid]",< 100 nM
9,"C=C(C)[C@@H]1CC[C@]2(C(=O)NS(C)(=O)=O)CC[C@]3(C)[C@H](CC[C@@H]4[C@@]5(C)CC=C(c6ccc(C(=O)O)cc6)C(C)(C)[C@@H]5CC[C@]43C)[C@@H]12 [Example 8, 4-((1R,3aS,5aR,5bR,7aR,11aS,11bR,13aR,13bR)-5a,5b,8,8,11a-pentamethyl-3a-(methylsulfonylcarbamoyl)-1-(prop-1-en-2-yl)-2,3,3a,4,5,5a,5b,6,7,7a,8,11,11a,11b,12,13,13a,13b-octadecahydro-1H-cyclopenta[a]chrysen-9-yl)benzoic acid]",< 100 nM
10,"C=C(C)[C@@H]1CC[C@]2(C(=O)NCc3nc4ccccc4s3)CC[C@]3(C)[C@H](CC[C@@H]4[C@@]5(C)CC=C(c6ccc(C(=O)O)cc6)C(C)(C)[C@@H]5CC[C@]43C)[C@@H]12 [Example 45, 4-((1R,3aS,5aR,5bR,7aR,11aS,11bR,13aR,13bR)-3a-(benzo[d]thiazol-2-ylmethylcarbamoyl)-5a,5b,8,8,11a-pentamethyl-1-(prop-1-en-2-yl)-2,3,3a,4,5,5a,5b,6,7,7a,8,11,11a,11b,12,13,13a,13b-octadecahydro-1H-cyclopenta[a]chrysen-9-yl)benzoic acid]",< 100 nM
11,"C=C(C)[C@@H]1CC[C@]2(C(=O)NCCN(CC)CC(=O)O)CC[C@]3(C)[C@H](CC[C@@H]4[C@@]5(C)CC=C(c6ccc(C(=O)O)cc6)C(C)(C)[C@@H]5CC[C@]43C)[C@@H]12 [Example 83, 4-((1R,3aS,5aR,5bR,7aR,11aS,11bR,13aR,13bR)-3a-(2-((carboxymethyl)(ethyl)amino)ethylcarbamoyl)-5a,5b,8,8,11a-pentamethyl-1-(prop-1-en-2-yl)-2,3,3a,4,5,5a,5b,6,7,7a,8,11,11a,11b,12,13,13a,13b-octadecahydro-1H-cyclopenta[a]chrysen-9-yl)benzoic acid]",< 100 nM
12,"C[C@H]1[C@H](C)CC[C@]2(C(=O)NCCCN3CCS(=O)(=O)CC3)CC[C@]3(C)C(=CC[C@@H]4[C@@]5(C)CC=C(c6ccc(C(=O)O)cc6)C(C)(C)[C@@H]5CC[C@]43C)[C@H]12 [Example A2, 4-((4aR,6aR,6bS,8aS,11R,12S,12aS,14aR,14bS)-8a-((3-(1,1-dioxido-4-thiomorpholinyl)propyl)carbamoyl)-4,4,6a,6b,11,12,14b-heptamethyl-1,4,4a,5,6,6a,6b,7,8,8a,9,10,11,12,12a,14,14a,14b-octadecahydro-3-picenyl)benzoic acid]",< 100 nM
13,"C=C(C)[C@@H]1CC[C@]2(C(=O)NC)CC[C@]3(C)[C@H](CC[C@@H]4[C@@]5(C)CC=C(c6ccc(C(=O)O)cc6)C(C)(C)[C@@H]5CC[C@]43C)[C@@H]12 [Example 26, 4-((1R,3aS,5aR,5bR,7aR,11aS,11bR,13aR,13bR)-5a,5b,8,8,11a-pentamethyl-3a-(methylcarbamoyl)-1-(prop-1-en-2-yl)-2,3,3a,4,5,5a,5b,6,7,7a,8,11,11a,11b,12,13,13a,13b-octadecahydro-1H-cyclopenta[a]chrysen-9-yl)benzoic acid]",< 100 nM
14,"C=C(C)[C@@H]1CC[C@]2(C(=O)N3CCN(CCO)CC3)CC[C@]3(C)[C@H](CC[C@@H]4[C@@]5(C)CC=C(c6ccc(C(=O)O)cc6)C(C)(C)[C@@H]5CC[C@]43C)[C@@H]12 [Example 13, 4-((1R,3aS,5aR,5bR,7aR,11aS,11bR,13aR,13bR)-3a-(4-(2-hydroxyethyl)piperazine-1-carbonyl)-5a,5b,8,8,11a-pentamethyl-1-(prop-1-en-2-yl)-2,3,3a,4,5,5a,5b,6,7,7a,8,11,11a,11b,12,13,13a,13b-octadecahydro-1H-cyclopenta[a]chrysen-9-yl)benzoic acid, TFA]",< 100 nM
15,"C=C(C)[C@@H]1CC[C@]2(C(=O)N3CCC[C@@H]3CO)CC[C@]3(C)[C@H](CC[C@@H]4[C@@]5(C)CC=C(c6ccc(C(=O)O)cc6)C(C)(C)[C@@H]5CC[C@]43C)[C@@H]12 [Example 9, 4-((1R,3aS,5aR,5bR,7aR,11aS,11bR,13aR,13bR)-3a-((R)-2-(hydroxymethyl)pyrrolidine-1-carbonyl)-5a,5b,8,8,11a-pentamethyl-1-(prop-1-en-2-yl)-2,3,3a,4,5,5a,5b,6,7,7a,8,11,11a,11b,12,13,13a,13b-octadecahydro-1H-cyclopenta[a]chrysen-9-yl)benzoic acid]",< 100 nM
